What is called Ki is a measure of affinity in units of concentration, obtained from inhibition or displacement.

Counter-ions that a name gives are not always drawn. Like-named read-outs stand apart in the source and are kept apart here.

Consider eight molecules from patent US5578601A, “Nonpeptide bradykinin antagonists” (Sterling Winthrop Inc., priority 1995, dated 1996).

The test system of experiment [1] is inflammation and hyperalgesia. The note with it: intraplantar carrageenan; cited from earlier work.
Another experiment has as its system nociception/hyperalgesia. The settings on record: several different animal models of nociception/hyperalgesia; cited from earlier work.
Another experiment deals with rhinovirus infection. The note with it: intranasal, experimentally induced infection; cited from earlier work.
In another experiment the target is T1, bradykinin B2 receptor (Homo sapiens, UniProt P30411).
T1 construct: These cells contain the bradykinin B2 receptor as previously described; endogenous in cells; host or cells: human IMR-90 fetal lung fibroblasts
T1 sequence (P30411 1-391): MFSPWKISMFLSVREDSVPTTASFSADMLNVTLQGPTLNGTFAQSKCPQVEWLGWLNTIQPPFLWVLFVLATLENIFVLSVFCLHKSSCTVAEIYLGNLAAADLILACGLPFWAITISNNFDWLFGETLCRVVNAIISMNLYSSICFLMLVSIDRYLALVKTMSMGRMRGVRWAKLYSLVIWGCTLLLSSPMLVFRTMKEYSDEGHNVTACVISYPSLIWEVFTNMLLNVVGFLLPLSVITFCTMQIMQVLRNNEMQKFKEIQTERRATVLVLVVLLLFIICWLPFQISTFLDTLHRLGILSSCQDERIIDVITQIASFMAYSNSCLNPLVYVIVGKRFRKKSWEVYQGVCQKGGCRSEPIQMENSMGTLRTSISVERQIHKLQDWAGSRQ
Nature of the experiment: [3H]-bradykinin radioligand competitive binding to human IMR-90 fetal lung fibroblasts (bradykinin B2 receptor). The note with it: human IMR-90 cells, 2 h, 4° C, pH 7.4, mean values from 2-3 experiments. Here is the method: The receptor binding affinity (KI) of the compounds of the present invention was determined in [^3 H]-bradykinin radioligand binding studies using human IMR-90 fetal lung fibroblasts. […] Briefly stated, harvested IMR-90 cells were resuspended to the desired cell concentration in ice cold buffer containing phosphate buffered saline (PBS) pH-7.4, sodium azide (0.02%), 0.1% BSA, PMSF (1 mM), DTT (1 mM), and captopril (1 mM). For competitive inhibition binding studies, cells were incubated with bradykinin (1-2 nM) in the absence or presence of increasing concentrations of competing compound. All assay mixtures were incubated for 2 hours at 4° C. The binding assays were terminated by filtration through Whatman GF/B filters on a Brandel Cell Harvester and the filters were washed with 3×1 ml aliquots of ice cold PBS containing 0.1% BSA. All filters were presoaked in 0.1% polyethylenimine to decrease nonspecific filter binding.

For the molecule NPC-567, in experiment [1], the “antagonism of inflammation and hyperalgesia” value is reported as “antagonized”. In addition, the antinociceptive activity result with nociception/hyperalgesia is “antinociceptive”. In addition, in the experiment on rhinovirus infection, the “beneficial effects on the course of rhinovirus infection” value was “failed to demonstrate beneficial effects”. `O=C(Nc1cccc2cnccc12)C(Cc1ccc2ccccc2c1)N=C(NC1CCCCC1)NC1CCCCC1` (stereo not drawn) [Example 24, 2-Naphthalenepropanamide, α-[[bis(cyclohexylamino)methylene]amino]-N-5-isoquinolinyl-, monohydrochloride]: on bradykinin B2 receptor (read-out: IMR 90 Ki), the Ki came out at 2540 nM. At bradykinin B2 receptor (IMR 90 Ki), `O=C(NC1CN2CCC1CC2)C(Cc1ccc(Cl)cc1)NC(=NC1CCCCC1)NC1CCCCC1` (stereo not drawn) [Example 22, 4-chlorophenylpropanamide, N-1-azabicyclo[2.2.2]oct-3-yl-α-[[bis(cyclohexylamino)methylene]amino]-, dihydrochloride] returned an inhibitory constant (Ki) of 2900 nM. With `CCCC[P+](CCCC)(CCCC)Cc1cccc(NC(=O)C(Cc2ccc3ccccc3c2)N=C(NC2CCCCC2)NC2CCCCC2)c1` (stereo not shown) [Example 17, Phosphonium, [[3-[[2-[[bis(cyclohexylamino)methylene]amino]-3-(2-naphthalenyl)-1-oxopropyl]amino]phenyl]methyl]tributyl-, chloride, monohydrochloride], the Ki at bradykinin B2 receptor (read-out: IMR 90 Ki) is 3000 nM.

As to `CCCC[P+](CCCC)(CCCC)Cc1ccc(NC(=O)C(Cc2csc3ccccc23)N=C(NC2CCCCC2)NC2CCCCC2)cc1` (stereo not shown) [Example 13, Phosphonium, [[4-[[3-benzo[b]thien-3-yl-2-[[bis(cyclohexylamino)methylene]amino]-1-oxopropyl]amino]phenyl]methyl]tributyl-, chloride, monohydrochloride], on bradykinin B2 receptor (read-out: IMR 90 Ki), the Ki came out at 430 nM. Still for that read-out and setting: next, `O=C(NCc1nc2ccccc2[nH]1)C(Cc1ccc2ccccc2c1)N=C(NC1CCCCC1)NC1CCCCC1` (stereo not drawn) [Example 25, 2-Naphthalenepropanamide, N-(1H-benzimidazol-2-ylmethyl)-α-[[bis(cyclohexylamino)methylene]amino]-, monohydrochloride]: 5300 nM. `CCCC[P+](CCCC)(CCCC)Cc1ccc(NC(=O)C(Cc2ccc3ccccc3c2)N=C(NCCC)NCCCc2ccccc2)cc1` (stereo not shown) [Example 10, Phosphonium, tributyl[[4-[[3-(2-naphthalenyl)-1-oxo-2-[[[(3-phenylpropyl)amino](propylamino)methylene]amino]propyl]amino]phenyl]methyl]-, chloride, monohydrochloride]: on bradykinin B2 receptor (read-out: IMR 90 Ki), the Ki is 1950 nM. On to `CCCC[P+](CCCC)(CCCC)Cc1ccc(NC(=O)C(Cc2ccc(C(=O)c3ccccc3)cc2)NC(=NC2CCCCC2)NC2CCCCC2)cc1` (stereo not shown) [Example 3, Phosphonium, [[4-[[3-(4-benzoylphenyl)-2-[[bis(cyclohexylamino)methylene]amino]-1-oxopropyl]amino]phenyl]methyl]tributyl-, chloride, monohydrochloride], for which, on bradykinin B2 receptor (read-out: IMR 90 Ki), the Ki came out at 5800 nM.
